Reference: patent US20230271941A1, “COMPOUNDS AND COMPOSITIONS FOR TREATING CONDITIONS ASSOCIATED WITH STING ACTIVITY” (IFM Due, Inc., priority 2020, published 2023)

Biological target: T1, hSTING (Homo sapiens, UniProt Q86WV6, G230A/H232R/R293Q/R71H)
T1 construct: host or cells: THP1-Dual KO-IFNAR2 cells
Assay: STING reporter assay: THP1-Dual KO-IFNAR2 cells stimulated with 2′3′cGAMP, luciferase reporter activity
Format: cell-based
Conditions: 15 μM 2′3′cGAMP transfected with Lipofectamine 2000, 24 h, luciferase reporter (QUANTI-Luc)
Experimental: STING pathway activation by the compounds described herein was measured using THP1-Dual™ cells (KO-IFNAR2).
THP1-Dual™ KO-IFNAR2 Cells (obtained from invivogen) were maintained in RPMI, 10% FCS, 5 ml P/S, 2 mM L-glut, 10 mM Hepes, and 1 mM sodium pyruvate. Compounds were spotted in empty 384 well tissue culture plates (Greiner 781182) by Echo for a final concentration of 0.0017-100 μM. Cells were plated into the TC plates at 40 μL per well, 2×10E6 cells/mL. For activation with STING ligand, 2′3′cGAMP (MW 718.38, obtained from Invivogen), was prepared in Optimem media.
The following solutions were prepared for each 1×384 plate: • Solution A: 2 mL Optimem with one of the following stimuli: • 60 μL of 10 mM 2′3′cGAMP→150 μM stock • Solution B: 2 mL Optimem with 60 μL Lipofectamine 2000→Incubate 5 min at RT
2 mL of solution A and 2 ml Solution B was mixed and incubated for 20 min at room temperature (RT). 20 μL of transfection solution (A+B) was added on top of the plated cells, with a final 2′3′cGAMP concentration of 15 μM. The plates were then centrifuged immediately at 340 g for 1 minute, after which they were incubated at 37° C., 5% CO2, >98% humidity for 24 h. Luciferase reporter activity was then measured. EC50 values were calculated by using standard methods known in the art.
Luciferase reporter assay: 10 μL of supernatant from the assay was transferred to white 384-plate with flat bottom and squared wells. One pouch of QUANTI-Luc™ Plus was dissolved in 25 mL of water. 100 μL of QLC Stabilizer per 25 mL of QUANTI-Luc™Plus solution was added. 50 μL of QUANTI-Luc™ Plus/QLC solution per well was then added. Luminescence was measured on a Platereader (e.g., Spectramax I3X (Molecular Devices GF3637001)).
Luciferase reporter activity was then measured. EC50 values were calculated by using standard methods known in the art.

T1 sequence (Q86WV6 whole entry R71H/G230A/H232R/R293Q): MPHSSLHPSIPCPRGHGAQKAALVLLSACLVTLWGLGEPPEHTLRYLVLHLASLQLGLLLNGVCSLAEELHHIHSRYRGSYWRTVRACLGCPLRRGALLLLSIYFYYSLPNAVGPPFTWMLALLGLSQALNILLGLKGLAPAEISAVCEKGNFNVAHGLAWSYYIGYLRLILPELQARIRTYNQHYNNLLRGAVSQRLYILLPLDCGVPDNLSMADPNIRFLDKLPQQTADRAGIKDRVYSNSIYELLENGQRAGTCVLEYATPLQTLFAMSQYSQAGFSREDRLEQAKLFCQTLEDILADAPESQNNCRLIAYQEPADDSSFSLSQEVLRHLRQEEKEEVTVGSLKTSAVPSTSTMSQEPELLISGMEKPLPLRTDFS

EC50 | SMILES
5000 to 100000 nM | O=C(Nc1c[nH]c2cc(F)c(F)cc12)c1ccnn1CCOc1cccnc1 [Compound 127, N-(5,6-difluoro-1H-indol-3-yl)-1-(2-(pyridin-3-yloxy)ethyl)-1H-pyrazole-5-carboxamide]
5000 to 100000 nM | O=C(Nc1c[nH]c2cc(F)c(F)cc12)c1ccn(CCOc2cccnc2)n1 [Compound 147, N-(5,6-difluoro-1H-indol-3-yl)-1-(2-(pyridin-3-yloxy)ethyl)-1H-pyrazole-3-carboxamide]
200 to 1000 nM | Cc1cc(-c2cc(C(=O)Nc3c[nH]c4cc(F)c(F)cc34)n[nH]2)ccc1Cl [Compound 164, 5-(4-chloro-3-methylphenyl)-N-(5,6-difluoro-1H-indol-3-yl)-1H-pyrazole-3-carboxamide]
200 to 1000 nM | O=C(Nc1c[nH]c2cc(F)c(F)cc12)c1cn(-c2ccc(C(F)(F)F)cc2)nn1 [Compound 106, N-(5,6-difluoro-1H-indol-3-yl)-1-(4-(trifluoromethyl)phenyl)-1H-1,2,3-triazole-4-carboxamide]
5000 to 100000 nM | O=C(Nc1c[nH]c2cc(F)c(F)cc12)c1cnn(CCOc2cccnc2)c1 [Compound 124, N-(5,6-difluoro-1H-indol-3-yl)-1-(2-(pyridin-3-yloxy)ethyl)-1H-pyrazole-4-carboxamide]
200 to 1000 nM | O=C(Nc1c[nH]c2cc(F)c(F)cc12)c1cnn(CCOc2cncc(C(F)(F)F)c2)c1 [Compound 161, N-(5,6-difluoro-1H-indol-3-yl)-1-(2-((5-(trifluoromethyl)pyridin-3-yl)oxy)ethyl)-1H-pyrazole-4-carboxamide]
200 to 1000 nM | O=C(Nc1c[nH]c2ccc(Cl)cc12)c1cn(-c2cnc(OCC(F)(F)F)c(F)c2)nn1 [Compound 159, N-(5-chloro-1H-indol-3-yl)-1-(5-fluoro-6-(2,2,2-trifluoroethoxy)pyridin-3-yl)-1H-1,2,3-triazole-4-carboxamide]
200 to 1000 nM | O=C(Nc1c[nH]c2cc(F)c(F)cc12)c1cc(-c2cc(F)cc(F)c2)[nH]n1 [Compound 173, N-(5,6-difluoro-1H-indol-3-yl)-5-(3,5-difluorophenyl)-1H-pyrazole-3-carboxamide]
200 to 1000 nM | O=C(Nc1c[nH]c2cc(F)c(F)cc12)c1cc(Cc2ccc(C(F)(F)F)cc2)no1 [Compound 151, N-(5,6-difluoro-1H-indol-3-yl)-3-(4-(trifluoromethyl)benzyl)isoxazole-5-carboxamide]
40 to 200 nM | Cc1cc(Cn2cc(C(=O)Nc3c[nH]c4ccc(Cl)cc34)cn2)cnc1OCC(F)(F)F [Compound 160, N-(5-chloro-1H-indol-3-yl)-1-((5-methyl-6-(2,2,2-trifluoroethoxy)pyridin-3-yl)methyl)-1H-pyrazole-4-carboxamide]
1000 to 5000 nM | O=C(Nc1c[nH]c2ccc(-c3ccc(CO)c(F)c3)cc12)c1cn(Cc2ccc(C(F)(F)F)cc2)cn1 [Compound 137, N-(5-(3-fluoro-4-(hydroxymethyl)phenyl)-1H-indol-3-yl)-1-(4-(trifluoromethyl)benzyl)-1H-imidazole-4-carboxamide]
200 to 1000 nM | O=C(Nc1c[nH]c2cc(F)c(F)cc12)c1cc(Cc2ccc(C(F)(F)F)cc2)[nH]n1 [Compound 145, N-(5,6-difluoro-1H-indol-3-yl)-5-(4-(trifluoromethyl)benzyl)-1H-pyrazole-3-carboxamide]
200 to 1000 nM | O=C(Nc1c[nH]c2cc(F)c(F)cc12)c1cc(-c2ccc(Cl)cc2)no1 [Compound 171, 3-(4-chlorophenyl)-N-(5,6-difluoro-1H-indol-3-yl)isoxazole-5-carboxamide]
40 to 200 nM | O=C(Nc1c[nH]c2ccc(Oc3ccccc3)cc12)c1cnn(Cc2ccc(C(F)(F)F)cc2)c1 [Compound 154, N-(5-phenoxy-1H-indol-3-yl)-1-(4-(trifluoromethyl)benzyl)-1H-pyrazole-4-carboxamide]
1000 to 5000 nM | O=C(Nc1c[nH]c2cc(F)c(F)cc12)c1csc(-c2ccc(OC(F)(F)F)cc2)n1 [Compound 177, N-(5,6-difluoro-1H-indol-3-yl)-2-(4-(trifluoromethoxy)phenyl)thiazole-4-carboxamide]
40 to 200 nM | O=C(Nc1c[nH]c2cc(F)c(F)cc12)c1ncn(-c2ccccc2)n1 [Compound 110, N-(5,6-difluoro-1H-indol-3-yl)-1-phenyl-1H-1,2,4-triazole-3-carboxamide]
200 to 1000 nM | O=C(Nc1c[nH]c2cc(F)c(F)cc12)c1cc(-c2ccccn2)on1 [Compound 109, N-(5,6-difluoro-1H-indol-3-yl)-5-(pyridin-2-yl)-1,2-oxazole-3-carboxamide]
200 to 1000 nM | O=C(Nc1c[nH]c2ccc(Cl)cc12)c1cn(-c2cnc(NCC(F)(F)F)c(F)c2)nn1 [Compound 158, N-(5-chloro-1H-indol-3-yl)-1-(5-fluoro-6-((2,2,2-trifluoroethyl)amino)pyridin-3-yl)-1H-1,2,3-triazole-4-carboxamide]

SMILES | EC50
O=C(Nc1c[nH]c2ccc(F)cc12)c1cnn(Cc2ccc(C(F)(F)F)cc2)c1 [Compound 115, N-(5-fluoro-1H-indol-3-yl)-1-(4-(trifluoromethyl)benzyl)-1H-pyrazole-4-carboxamide] | 200 to 1000 nM
COc1cc2[nH]cc(NC(=O)c3cnn(Cc4ccc(C(F)(F)F)cc4)c3)c2cn1 [Compound 126, N-(6-methoxy-1H-pyrrolo[3,2-c]pyridin-3-yl)-1-(4-(trifluoromethyl)benzyl)-1H-pyrazole-4-carboxamide] | 1000 to 5000 nM
O=C(Nc1c[nH]c2cc(F)ccc12)c1ccn(Cc2ccc(C(F)(F)F)cc2)n1 [Compound 103, N-(6-fluoro-1H-indol-3-yl)-1-(4-(trifluoromethyl)benzyl)-1H-pyrazole-3-carboxamide] | 200 to 1000 nM
O=C(Nc1c[nH]c2cc(F)c(Cl)cc12)c1cnn(Cc2ccc(C(F)(F)F)cc2)c1 [Compound 141, N-(5-chloro-6-fluoro-1H-indol-3-yl)-1-(4-(trifluoromethyl)benzyl)-1H-pyrazole-4-carboxamide] | 40 to 200 nM
O=C(Nc1c[nH]c2cc(F)ccc12)c1cn(Cc2ccc(C(F)(F)F)cc2)cn1 [Compound 104, N-(6-fluoro-1H-indol-3-yl)-1-(4-(trifluoromethyl)benzyl)-1H-imidazole-4-carboxamide] | 200 to 1000 nM
O=C(Nc1c[nH]c2cnccc12)c1cnn(Cc2ccc(C(F)(F)F)cc2)c1 [Compound 144] | 5000 to 100000 nM
O=C(Nc1c[nH]c2ccccc12)c1cn(Cc2ccc(C(F)(F)F)c(Cl)c2)cn1 [Compound 136, 1-(3-chloro-4-(trifluoromethyl)benzyl)-N-(1H-indol-3-yl)-1H-imidazole-4-carboxamide] | 200 to 1000 nM
Cc1cc(C(=O)Nc2c[nH]c3cc(F)c(F)cc23)nn1C1CCCCC1 [Compound 140, 1-cyclohexyl-N-(5,6-difluoro-1H-indol-3-yl)-5-methyl-1H-pyrazole-3-carboxamide] | 5000 to 100000 nM
O=C(Nc1c[nH]c2cc(Cl)ccc12)c1cnn(Cc2ccc(C(F)(F)F)cc2)c1 [Compound 102, N-(6-chloro-1H-indol-3-yl)-1-[[4-(trifluoromethyl)phenyl]methyl]pyrazole-4-carboxamide] | 200 to 1000 nM
O=C(Nc1c[nH]c2cc(F)c(F)cc12)c1cn(Cc2ccc(C(F)(F)F)cc2)nn1 [Compound 105, N-(5,6-difluoro-1H-indol-3-yl)-1-(4-(trifluoromethyl)benzyl)-1H-1,2,3-triazole-4-carboxamide] | 200 to 1000 nM
